Data published in patent publication US10189794B2, “Heteroaryl compounds and uses thereof” (Celgene CAR LLC, priority 2013, dated 2019).
Where two headings read alike, the source gives them in different places.

What was measured:
FGFR4-WT = FGFR4-WT (Homo sapiens (Human), UniProt P22455); assay: Omnia assay for potency assessment against FGFR4 enzyme; assay type: biochemical; conditions: Y10-Sox 10 uM, read-out: FGFR4 IC50
Method: A 10× stock solution of FGFR4-WT (PR4380C), (from Invitrogen, Carlsbad, Calif.) corresponding to method a in Table 7, was prepared as described below. Alternatively, a 10× stock solution of FGFR4-WT (F01-11G), (SignalChem, Richmond, BC) corresponding to method b in Table 7, was prepared as described below. A solution of 1.4×ATP (AS001A) and 5×Tyr-Sox conjugated peptide substrate (KNZ3101) were prepared in IX kinase reaction buffer consisting of 20 mM Tris, pH 7.5, 5 mM MgCl2, 1 mM EGTA, 5 mM β-glycerophosphate, 5% glycerol (10× stock, KB002A) and 0.2 mM DTT (DS001A). […] The serially diluted compounds were prepared on a Tecan EVO100. A second addition of 10 μl of Tyr-Sox FGFR4 substrate was added to each well and the kinase reactions were started with the addition of 35 μL of 1.4×ATP. The reactions were monitored every 71 seconds for 240 minutes at λex360/λem485 in a Synergy plate reader from BioTek (Winooski, Vt.).

Huh7 cells = assay: Cell proliferation, Huh7 (CellTiter Glo); assay type: cell-based; conditions: Homo sapiens, read-out: Cell Proliferation GI50 (nM) HUH
Method: The growth inhibition (GI50) values were determined by Graph Pad Prism.

[1] = target: FGFR4 in MDA-MB-453 cells (Homo sapiens (Human), UniProt P22455, Y367C); assay: Target occupancy assay with biotinylated covalent probe I-127; assay type: cell-based; conditions: MDA-MB-453 lysate; 2 μM biotinylated probe I-127
Chain of FGFR4 in MDA-MB-453 cells (P22455 22-802 Y367C): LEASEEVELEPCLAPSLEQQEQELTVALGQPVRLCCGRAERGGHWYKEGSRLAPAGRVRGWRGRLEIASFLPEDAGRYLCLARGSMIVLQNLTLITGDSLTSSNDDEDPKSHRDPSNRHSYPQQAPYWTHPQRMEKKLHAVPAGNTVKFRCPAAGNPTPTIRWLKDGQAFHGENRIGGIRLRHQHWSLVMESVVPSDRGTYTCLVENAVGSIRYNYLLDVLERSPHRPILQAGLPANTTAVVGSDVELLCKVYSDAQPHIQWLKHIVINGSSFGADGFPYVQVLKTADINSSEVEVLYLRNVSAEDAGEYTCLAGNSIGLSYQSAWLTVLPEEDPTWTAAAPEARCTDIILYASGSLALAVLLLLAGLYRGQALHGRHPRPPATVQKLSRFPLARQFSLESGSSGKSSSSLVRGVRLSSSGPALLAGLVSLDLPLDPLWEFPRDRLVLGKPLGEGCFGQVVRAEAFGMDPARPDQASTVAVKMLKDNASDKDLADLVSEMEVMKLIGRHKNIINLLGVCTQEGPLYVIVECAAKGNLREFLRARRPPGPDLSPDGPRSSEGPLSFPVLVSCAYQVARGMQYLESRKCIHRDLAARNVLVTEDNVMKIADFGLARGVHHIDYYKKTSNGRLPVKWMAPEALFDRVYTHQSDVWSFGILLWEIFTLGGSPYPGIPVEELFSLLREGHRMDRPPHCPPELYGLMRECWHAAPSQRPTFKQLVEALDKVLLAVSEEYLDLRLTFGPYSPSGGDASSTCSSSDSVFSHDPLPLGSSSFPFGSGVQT
Method: In order to assess free FGFR4 protein a biotinylated covalent probe was utilized. […] The reaction was incubated for 2 hr at room temperature. The samples and probe mixture were transferred to a FGFR4-coated MSD plate for 2 hr at room temperature. MSD signals were obtained with an anti-streptavidin Sulfo-tag (Meso Scale) antibody for 1 hr at room temperature.
If a compound completely (100%) covalently modies FGFR4 no free FGFR4 should be available for covalent modification by the biotinylated probe and subsequent binding to streptavidin and detection.

MDA-MB-453 cells = assay: Cell proliferation, MDA-MB-453 (CellTiter Glo); assay type: cell-based; conditions: Homo sapiens, read-out: Cell Proliferation GI50 (nM) MDA
Method: For both MDA-MB-453 and Huh7 cells the starting density was 5000 cells per well. The cells were allowed to settle down for 4 hr and were then treated with 5, 1.25, 0.31, 0.078, 0.020 or 0.005 μM of test compound for: 96 hr for MDA-MB-453 and 120 hr for Huh7 cells. Cell viability was determined by CellTiter Glo (Promega, Madison, Wis.) and the results were converted to cell numbers using a standard curve. The growth inhibition (GI50) values were determined by Graph Pad Prism.
The results of these experiments show the ability of compounds to inhibit cell growth in FGFR dependant cell lines and are depicted in Table 8, in the columns titled “Cell Proliferation GI50 (nM)”. MDA-MB-453 cell results fall under the heading “MDA” and Huh7 cell results fall under the heading “Huh.”

[2] = method a: Invitrogen FGFR4-WT 10 nM, ATP 300 uM

Chain of FGFR4-WT (P22455 22-802): as the sequence (P22455 22-802 Y367C) above, with C346Y counted along it

Row | Compound | IC50 (FGFR4-WT; [2]) | EC50 [1] | GI50 (MDA-MB-453 cells; MDA-MB-453, 96 hr) | also measured
1 | C=CC(=O)NC1CCCCC1Nc1ncc2c(n1)N(C)C(=O)N(c1cc(OC)cc(OC)c1)C2 (racemic) [I-18] | – | – | – | IC50 (FGFR4-WT; method b: SignalChem FGFR4-WT 2.5 nM, ATP 250 uM): > 1 µM
2 | C=CC(=O)N(C)C1CCCCC1Nc1ncc2c(n1)N(C)C(=O)N(c1cc(OC)cc(OC)c1)C2 (racemic) [I-39] | > 1 µM | – | – | –
3 | C=CC(=O)NC1CCCCC1Nc1ncc2c(n1)N(C1CCCN(C(=O)OC(C)(C)C)C1)C(=O)N(c1cc(OC)cc(OC)c1)C2 (racemic) [I-45] | > 1 µM | – | – | –
4 | C=CC(=O)NC1CCCCC1Nc1ncc2c(n1)N(C1CCCNC1)C(=O)N(c1cc(OC)cc(OC)c1)C2 (racemic) [I-46] | > 1 µM | – | – | –
5 | C=CC(=O)NC1CCCCC1Nc1ncc2c(n1)N(C1CCC1)C(=O)N(c1c(Cl)c(OC)cc(OC)c1Cl)C2 (racemic) [I-70] | < 0.1 µM | – | – | –
6 | C=CC(=O)NC1CCCCC1Nc1ncc2c(n1)N(Cc1cccc(NS(C)(=O)=O)c1)C(=O)N(c1c(Cl)c(OC)cc(OC)c1Cl)C2 (racemic) [I-89] | < 0.1 µM | – | – | –
7 | C=CC(=O)NC1CCCC1Nc1ncc2c(n1)N(C)C(=O)N(c1c(Cl)c(OC)cc(OC)c1Cl)C2 (racemic) [I-112] | < 0.1 µM | – | – | –
8 | C=CC(=O)NC1CC=CCC1Nc1ncc2c(n1)N(C)C(=O)N(c1c(Cl)c(OC)cc(OC)c1Cl)C2 (racemic) [I-113] | < 0.1 µM | – | – | GI50 (Huh7 cells; Huh-7, Huh7, 120 hr): 501 to 999 nM
9 | C=CC(=O)NC1CCCCC1Nc1ncc2c(n1)N(CC1CC1)C(=O)N(c1c(Cl)c(OC)cc(OC)c1Cl)C2 (racemic) [I-129] | < 0.1 µM | – | – | –
10 | C=CC(=O)Nc1ccccc1Nc1ncc2c(n1)N(C)C(=O)N(c1cc(OC)cc(OC)c1)C2 [I-5] | – | 0.101 to 0.5 µM | 501 to 999 nM | GI50 (Huh7 cells; Huh-7, Huh7, 120 hr): > 1000 nM
11 | C=CC(=O)Nc1cc(N2CCN(CCOC)CC2)ccc1Nc1ncc2c(n1)N(Cc1cccc(NC(=O)CC)c1)C(=O)N(c1cc(OC)cc(OC)c1)C2 [I-9] | – | < 0.1 µM | < 100 nM | GI50 (Huh7 cells; Huh-7, Huh7, 120 hr): 501 to 999 nM
12 | C=CC(=O)Nc1ccccc1Nc1ncc2c(n1)N(Cc1cccc(F)c1)C(=O)N(c1c(Cl)c(OC)cc(OC)c1Cl)C2 [I-12] | – | 0.101 to 0.5 µM | 101 to 500 nM | –
13 | C=CC(=O)Nc1cc(N(C)CCOC)ccc1Nc1ncc2c(n1)N(Cc1ccccc1)C(=O)N(c1cc(OC)cc(OC)c1)C2 [I-13] | – | 0.101 to 0.5 µM | 101 to 500 nM | GI50 (Huh7 cells; Huh-7, Huh7, 120 hr): > 1000 nM
14 | C=CC(=O)Nc1cc(N2CCN(CC)CC2)ccc1Nc1ncc2c(n1)N(C)C(=O)N(c1cc(OC)cc(OC)c1)C2 [I-15] | – | 0.101 to 0.5 µM | < 100 nM | –
15 | C=CC(=O)Nc1cc(N2CCOCC2)ccc1Nc1ncc2c(n1)N(C)C(=O)N(c1cc(OC)cc(OC)c1)C2 [I-17] | – | 0.101 to 0.5 µM | 101 to 500 nM | –
16 | C=CC(=O)Nc1cc(N2CCN(CCOC)CC2)ccc1Nc1ncc2c(n1)N(C)C(=O)N(c1cc(OC)cc(OC)c1)C2 [I-20] | – | 0.101 to 0.5 µM | < 100 nM | –
17 | C=CC(=O)Nc1ccccc1Nc1ncc2c(n1)N(Cc1cccc(OC)c1)C(=O)N(c1c(Cl)c(OC)cc(OC)c1Cl)C2 [I-28] | < 0.1 µM | – | – | –
18 | C=CC(=O)N(C)C1CCCCC1Nc1ncc2c(n1)N(C)C(=O)N(c1c(Cl)c(OC)cc(OC)c1Cl)C2 (stereo not drawn) [I-53] | < 0.1 µM | – | – | –
19 | C=CC(=O)Nc1cc(N2CCN(C(=O)OC(C)(C)C)CC2)ccc1Nc1ncc2c(n1)N(C)C(=O)N(c1c(Cl)c(OC)cc(OC)c1Cl)C2 [I-62] | < 0.1 µM | – | – | –
20 | C=CC(=O)Nc1ccccc1Nc1ncc2c(n1)N(C1CCNCC1)C(=O)N(c1c(Cl)c(OC)cc(OC)c1Cl)C2 [I-85] | – | – | – | GI50 (MDA-MB-453 cells; MDA-MB-453, 96 h): < 100 nM; GI50 (Huh7 cells; Huh-7, 120 h): 101 to 500 nM
21 | C=CC(=O)Nc1ccccc1Nc1ncc2c(n1)N(Cc1ccnc(N)c1)C(=O)N(c1cc(OC)cc(OC)c1)C2 [I-87] | – | – | < 100 nM | GI50 (Huh7 cells; Huh-7, Huh7, 120 hr): 101 to 500 nM
22 | C=CC(=O)Nc1ccccc1Nc1ncc2c(n1)N(C1COC1)C(=O)N(c1cc(OC)cc(OC)c1)C2 [I-88] | – | – | 501 to 999 nM | GI50 (Huh7 cells; Huh-7, Huh7, 120 hr): > 1000 nM
